Where two headings read alike, the source gives them in different places.
What was measured:
MOLM-13 cells = assay: MOLM13 CTG - analysis of cell proliferation (Cell Titre Glo); assay type: cell-based; details: Homo sapiens, geometric mean, read-out: CTG MOLM13 cells IC50 GEOMEAN
Description: MOLM-13 or MOLM-14 cells were plated, in suspension, in 24 well tissue culture plates at final concentration of 200,000/ml, with or without 50 ng/ml IFNγ. […] Cells were incubated for 4 days at 37° C. at which point 600 μl of cell suspension was removed for Mass spectrometry analysis of m6A. 600 μl of fresh media containing the appropriate concentration of METTL3 inhibitor/IFNγ was added to remaining cell suspensions. Cells where then cultured for a further 7 days, cell suspension was sampled for analysis of proliferation and Cell surface markers periodically.
At regular time points (4, 5, 6 &7) days cells were mixed to maintain a homogenous cell suspension. 25 μl of this cell suspension was removed and added to a white 384 well plate, 25 μl of Cell Titre Glo reagent (Promega) was added, and incubated for 10 mins at room temperature before measurement of luminescence intensity, as per the manufacturers instructions.

Caov-3 cells = assay: Caov3 CTG assay - proliferation assay; assay type: cell-based; details: Homo sapiens, 120 hours treatment, 30 μM top concentration, CellTiter-Glo, geometric mean, read-out: CTG Caov3 cells IC50 GEOMEAN
Description: Upon treatment, Coav-3 cells were incubated for 10 min at RT with the CellTiter-Glo reagent (G7571, Promega). Measurement of the luminescence signal was performed on a microplate reader (Ensight, PerkinElmer).

METTL3/14 = target: T1, METTL3/14 (Homo sapiens, UniProt Q86U44); assay: METTL3/14 methyltransferase assay (METTL3_14 RFMS, RapidFire mass spectrometry); assay type: biochemical; details: read-out: METTL3_14 RFMS IC50;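 further: recombinant His-tagged METTL3 with FLAG-tagged METTL14 from baculovirus, SAH product quantified by mass spectrometry against isotope-labelled internal standards, 60 min at room temperature, scaled between no-RNA and DMSO-only wells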
T1 construct: The enzyme used was full-length his-tagged METTL3; His; made in house
T1 sequence (Q86U44 whole entry): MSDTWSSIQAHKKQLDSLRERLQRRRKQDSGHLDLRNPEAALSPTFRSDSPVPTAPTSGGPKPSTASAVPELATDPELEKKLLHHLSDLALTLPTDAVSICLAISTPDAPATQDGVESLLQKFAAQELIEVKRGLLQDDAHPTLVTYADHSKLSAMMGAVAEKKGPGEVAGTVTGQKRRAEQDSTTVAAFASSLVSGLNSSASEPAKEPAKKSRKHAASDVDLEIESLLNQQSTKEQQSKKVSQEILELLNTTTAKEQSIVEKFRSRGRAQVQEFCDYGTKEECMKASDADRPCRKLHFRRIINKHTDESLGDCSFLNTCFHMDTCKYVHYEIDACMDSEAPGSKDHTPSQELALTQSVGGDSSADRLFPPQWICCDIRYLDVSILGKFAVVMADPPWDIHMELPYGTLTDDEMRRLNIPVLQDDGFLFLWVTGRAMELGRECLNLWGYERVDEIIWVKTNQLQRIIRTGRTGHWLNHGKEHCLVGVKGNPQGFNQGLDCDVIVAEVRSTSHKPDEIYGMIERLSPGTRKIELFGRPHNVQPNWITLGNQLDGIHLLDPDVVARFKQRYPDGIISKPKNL
T1 sequence (Q9HCE5 whole entry partner): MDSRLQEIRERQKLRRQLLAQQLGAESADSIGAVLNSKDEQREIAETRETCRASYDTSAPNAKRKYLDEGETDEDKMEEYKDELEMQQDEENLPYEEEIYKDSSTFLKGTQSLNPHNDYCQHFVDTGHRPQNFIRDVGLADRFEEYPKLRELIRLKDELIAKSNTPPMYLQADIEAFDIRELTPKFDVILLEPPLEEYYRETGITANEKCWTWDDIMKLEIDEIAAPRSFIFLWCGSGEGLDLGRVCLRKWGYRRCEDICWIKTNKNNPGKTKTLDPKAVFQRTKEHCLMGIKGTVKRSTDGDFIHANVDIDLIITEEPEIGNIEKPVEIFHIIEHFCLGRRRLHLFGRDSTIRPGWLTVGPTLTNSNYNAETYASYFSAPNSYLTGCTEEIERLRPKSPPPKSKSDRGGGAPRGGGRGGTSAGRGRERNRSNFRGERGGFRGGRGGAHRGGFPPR
Description: The enzyme used was full-length his-tagged METTL3 co-expressed with full length FLAG-tagged METTL14 in a baculovirus expression system. […] After termination, plates were sealed, centrifuged and stored at 4° C. until analysis. […] Mass Spectrometry Analysis RNA methyltransferase activity was measured label free using the RapidFireTM mass spectrometry (RF/MS) platform. Stopped and stable assay plates were analyzed on the Agilent RF300 integrated autosampler/solid-phase extraction (SPE) system coupled to an ABSciex 4000 mass spectrometer for the generation of the product S-adenosyl homocysteine (SAH) and normalized to the ratio of signal of the two internal product standards, respectively. Solvent A was water containing 0.1% (v/v) TCA. Solvent B was acetonitrile/0.1% ammonium acetate (8:2, v/v). More specifically, plates were centrifuged at 4350 rpm for 10 min, samples were aspirated under vacuum for 600 ms, then loaded onto a C18 solid-phase extraction cartridge and washed for 3 s with solvent A at a flow rate of 1.5 mL/min. Retained product and internal standards were eluted with solvent B at a flow rate of 1 mL/min for 3 s and finally the cartridge was reequilibrated with solvent A for 500 ms.

[1] = 5 nM METTL3/14, 0.2 μM RNA substrate, 0.5 μM SAM, lower limit of the assay IC50=5 nM, Compounds 266-351

Row | Structure (SMILES) | IC50 (MOLM-13 cells) | IC50 (Caov-3 cells) | IC50 (METTL3/14; [1]) | IC50 (METTL3/14)
1 | N#Cc1cc(-c2cn(Cc3cn4cc(CNCC5CCC5)ccc4n3)nn2)c2cn[nH]c2c1 [Example 338, 4-{1-[(6-{[(cyclobutylmethyl)amino]methyl}imidazo[1,2-a]pyridin-2-yl)methyl]-1H-1,2,3-triazol-4-yl}-1H-indazole-6-carbonitrile] | 1190 nM | 1110 nM | 7.49 nM | –
2 | COc1cc(-c2cn(Cc3cn4cc(CNCC5CCC5)ccc4n3)nn2)c2cn[nH]c2c1 [Example 270, N-(cyclobutylmethyl)-1-[2-[[4-(6-methoxy-1H-indazol-4-yl)triazol-1-yl]methyl]imidazo[1,2-a]pyridin-6-yl]methanamine] | 431 nM | 161 nM | – | ≤ 3.63 nM
3 | c1cc(-c2cn(Cc3cn4cc(CNCC5CCC5)ccc4n3)nn2)c2cn[nH]c2c1 [Example 327, N-(cyclobutylmethyl)-1-[2-[[4-(1H-indazol-4-yl)triazol-1-yl]methyl]imidazo[1,2-a]pyridin-6-yl]methanamine] | 1620 nM | 572 nM | 5.78 nM | –
4 | Clc1cc(-c2cn(Cc3cn4cc(CNCC5CCC5)ccc4n3)nn2)c2cn[nH]c2c1 [Example 302, 1-[2-[[4-(6-chloro-1H-indazol-4-yl)triazol-1-yl]methyl]imidazo[1,2-a]pyridin-6-yl]-N-(cyclobutylmethyl)methanamine] | 629 nM | 211 nM | – | ≤ 4.35 nM
5 | FC1(F)CC(CNCc2ccc3nc(Cc4cn(-c5cccc6[nH]ncc56)nn4)cn3c2)C1 [Example 337, [(3,3-difluorocyclobutyl)methyl][(2-{[1-(1H-indazol-4-yl)-1H-1,2,3-triazol-4-yl]methyl}imidazo[1,2-a]pyridin-6-yl)methyl]amine] | 5170 nM | 3210 nM | 16.3 nM | –
6 | COc1cc(-c2cn(Cc3cn4cc(CNCC5(OC)CCC5)ccc4n3)nn2)c2cn[nH]c2c1 [Example 343, N-[(1-methoxycyclobutyl)methyl]-1-[2-[[4-(6-methoxy-1H-indazol-4-yl)triazol-1-yl]methyl]imidazo[1,2-a]pyridin-6-yl]methanamine] | 930 nM | 554 nM | 6.1 nM | –
7 | COc1cc(-c2cn(Cc3cn4cc(CNCC5(O)CCC5)ccc4n3)nn2)c2cn[nH]c2c1 [Example 269, 1-[[[2-[[4-(6-methoxy-1H-indazol-4-yl)triazol-1-yl]methyl]imidazo[1,2-a]pyridin-6-yl]methylamino]methyl]cyclobutanol] | 1390 nM | 692 nM | 8.05 nM | –
8 | c1cc(-c2cn(Cc3cn4cc(CNCC5CCC5)ccc4n3)cn2)c2cn[nH]c2c1 [Example 339, N-(cyclobutylmethyl)-1-[2-[[4-(1H-indazol-4-yl)imidazol-1-yl]methyl]imidazo[1,2-a]pyridin-6-yl]methanamine] | 3070 nM | 849 nM | 10.1 nM | –
9 | Fc1ccc(-c2cn(Cc3cn4cc(CNCC5CCCCC5)ccc4n3)nn2)c2cn[nH]c12 [Example 307, N-(cyclohexylmethyl)-1-[2-[[4-(7-fluoro-1H-indazol-4-yl)triazol-1-yl]methyl]imidazo[1,2-a]pyridin-6-yl]methanamine] | 3680 nM | 1770 nM | 6.72 nM | –

From patent US12358915B2, “METTL3 inhibitory compounds” (STORM THERAPEUTICS LTD., priority 2019, dated 2025)
